Laboratory results from patent US10479795B2 (Incyte Corporation, priority 2016, dated 2019).
Structures can show the parent of a compound that is named as a salt. Where two headings read alike, the source gives them in different places.

How the values were obtained:
[1] = system: Phosphorylated Ribosomal Protein S6 (RPS6); test: THP-1 RPS6 ELISA Assay; assay type: cell-based, Human; conditions: THP-1 cells, read-out: PI3Kγ_THP1_RPS6_ELISA IC50
Summary of the method: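 Serum-starved THP-1 cells were preincubated with a concentration range of compound for 2 h at 37 °C, then stimulated with 10 nM MCP-1 for 15 min. Phospho-RPS6 in lysates was quantified by ELISA at 450 nm. IC50 came from percent inhibition versus log inhibitor concentration.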

[2] = target: PI3Kδ (p110δ/p85α) Recombinant Human Protein (Homo sapiens (Human), UniProt O00329); test: PI3Kδ Scintillation Proximity Assay; assay type: biochemical
Summary of the method: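 Recombinant human p110δ/p85α (3.4 nM) phosphorylates 20 μM di-octanoyl PIP2 using 2 μM ATP spiked with [γ-33P]ATP, 120 min, room temperature, pH 6.7, 2% DMSO. Product measured by scintillation proximity; IC50 from dose-response fit.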

[3] = target: PI3Kγ (p110γ) Recombinant Human Protein (Homo sapiens (Human), UniProt P48736); test: PI3K-γ Scintillation Proximity Assay; assay type: biochemical; conditions: read-out: PI3Kγ IC50
Summary of the method: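 Recombinant human p110γ assayed at room temperature in 20 mM MOPS pH 6.7, 10 mM MgCl2, 5 mM DTT, 0.03% CHAPS, 2% DMSO, with 20 μM PIP2 and 2 μM ATP plus [γ-33P]ATP. Product captured on WGA SPA beads overnight and counted; IC50 fitted from % of solvent-control activity versus log inhibitor concentration.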

Sequence of PI3Kγ (p110γ) Recombinant Human Protein (P48736 whole entry): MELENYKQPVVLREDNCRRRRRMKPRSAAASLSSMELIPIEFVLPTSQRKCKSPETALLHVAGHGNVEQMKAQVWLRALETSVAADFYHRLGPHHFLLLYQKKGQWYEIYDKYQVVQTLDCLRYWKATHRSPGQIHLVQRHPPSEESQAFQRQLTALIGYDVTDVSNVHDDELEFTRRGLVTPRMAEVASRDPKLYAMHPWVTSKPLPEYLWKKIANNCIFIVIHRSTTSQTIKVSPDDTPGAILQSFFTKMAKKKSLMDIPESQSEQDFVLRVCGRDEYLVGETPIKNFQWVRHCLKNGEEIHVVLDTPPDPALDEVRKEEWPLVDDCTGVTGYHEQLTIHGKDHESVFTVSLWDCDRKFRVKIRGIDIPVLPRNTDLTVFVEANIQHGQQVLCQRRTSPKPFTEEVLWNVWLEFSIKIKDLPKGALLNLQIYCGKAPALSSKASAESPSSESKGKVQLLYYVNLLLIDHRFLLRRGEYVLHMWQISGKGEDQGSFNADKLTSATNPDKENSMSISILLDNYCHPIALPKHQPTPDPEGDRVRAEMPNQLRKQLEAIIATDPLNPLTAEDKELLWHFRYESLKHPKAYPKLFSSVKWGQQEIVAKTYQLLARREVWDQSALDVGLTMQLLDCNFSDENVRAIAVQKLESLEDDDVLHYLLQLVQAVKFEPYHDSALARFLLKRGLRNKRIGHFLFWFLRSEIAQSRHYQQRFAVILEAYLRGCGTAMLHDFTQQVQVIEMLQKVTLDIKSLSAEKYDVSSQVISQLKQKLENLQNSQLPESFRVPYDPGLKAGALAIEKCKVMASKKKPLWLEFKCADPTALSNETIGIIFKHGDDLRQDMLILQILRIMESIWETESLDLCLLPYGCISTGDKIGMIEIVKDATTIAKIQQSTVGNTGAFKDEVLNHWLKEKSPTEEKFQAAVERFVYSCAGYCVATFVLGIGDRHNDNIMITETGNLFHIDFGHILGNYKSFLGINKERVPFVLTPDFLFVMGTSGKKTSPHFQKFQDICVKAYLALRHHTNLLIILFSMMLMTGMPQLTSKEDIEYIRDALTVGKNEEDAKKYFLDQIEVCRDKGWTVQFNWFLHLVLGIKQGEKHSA
Sequence of PI3Kδ (p110δ/p85α) Recombinant Human Protein (O00329 whole entry): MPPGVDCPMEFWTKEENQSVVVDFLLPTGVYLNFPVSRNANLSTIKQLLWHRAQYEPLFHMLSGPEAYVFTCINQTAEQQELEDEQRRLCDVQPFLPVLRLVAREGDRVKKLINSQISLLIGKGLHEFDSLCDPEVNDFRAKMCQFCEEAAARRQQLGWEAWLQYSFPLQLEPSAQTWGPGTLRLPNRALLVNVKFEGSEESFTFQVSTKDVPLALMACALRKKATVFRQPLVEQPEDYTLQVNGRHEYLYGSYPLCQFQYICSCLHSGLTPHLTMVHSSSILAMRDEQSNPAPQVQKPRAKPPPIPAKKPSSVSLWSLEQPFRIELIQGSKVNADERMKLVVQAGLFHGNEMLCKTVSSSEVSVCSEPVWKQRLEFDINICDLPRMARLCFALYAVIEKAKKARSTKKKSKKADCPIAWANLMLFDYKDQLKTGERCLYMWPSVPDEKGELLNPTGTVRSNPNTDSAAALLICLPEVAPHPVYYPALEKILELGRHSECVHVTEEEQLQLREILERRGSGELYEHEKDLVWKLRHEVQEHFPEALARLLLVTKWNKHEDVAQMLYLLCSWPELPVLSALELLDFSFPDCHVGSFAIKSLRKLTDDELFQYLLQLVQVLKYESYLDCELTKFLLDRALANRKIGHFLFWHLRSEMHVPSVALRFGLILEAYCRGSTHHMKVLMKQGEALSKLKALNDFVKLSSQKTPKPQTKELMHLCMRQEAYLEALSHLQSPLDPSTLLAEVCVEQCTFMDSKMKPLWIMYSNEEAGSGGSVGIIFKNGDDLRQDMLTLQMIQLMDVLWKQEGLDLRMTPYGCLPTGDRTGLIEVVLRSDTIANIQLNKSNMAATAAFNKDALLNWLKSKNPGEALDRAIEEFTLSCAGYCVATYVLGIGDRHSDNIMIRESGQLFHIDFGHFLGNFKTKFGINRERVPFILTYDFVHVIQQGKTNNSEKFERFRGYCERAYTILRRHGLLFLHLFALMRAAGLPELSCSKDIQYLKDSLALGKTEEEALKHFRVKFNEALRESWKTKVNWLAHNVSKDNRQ
Sequence of PI3Kδ (p110δ/p85α) Recombinant Human Protein (P27986 whole entry partner): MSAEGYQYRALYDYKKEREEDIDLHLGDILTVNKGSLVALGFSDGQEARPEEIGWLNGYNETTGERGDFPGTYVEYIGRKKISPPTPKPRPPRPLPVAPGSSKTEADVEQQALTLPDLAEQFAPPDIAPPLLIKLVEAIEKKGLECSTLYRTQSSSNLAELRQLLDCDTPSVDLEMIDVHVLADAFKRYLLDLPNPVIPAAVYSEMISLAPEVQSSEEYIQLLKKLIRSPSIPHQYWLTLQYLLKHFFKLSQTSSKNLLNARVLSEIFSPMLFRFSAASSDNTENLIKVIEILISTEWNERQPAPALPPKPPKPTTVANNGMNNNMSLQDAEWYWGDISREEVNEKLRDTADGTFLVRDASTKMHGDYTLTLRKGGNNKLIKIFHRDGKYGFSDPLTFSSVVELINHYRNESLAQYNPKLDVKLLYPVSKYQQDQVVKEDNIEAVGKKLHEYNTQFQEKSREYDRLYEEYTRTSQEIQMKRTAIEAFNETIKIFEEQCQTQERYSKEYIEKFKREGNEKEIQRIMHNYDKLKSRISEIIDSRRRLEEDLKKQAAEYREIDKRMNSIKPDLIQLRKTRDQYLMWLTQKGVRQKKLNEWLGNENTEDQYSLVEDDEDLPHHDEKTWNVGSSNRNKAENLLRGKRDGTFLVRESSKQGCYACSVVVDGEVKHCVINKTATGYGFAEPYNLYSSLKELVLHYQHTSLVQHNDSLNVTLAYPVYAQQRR

SMILES	IC50 [1] [nM]	IC50 [2] [nM]	IC50 [3] [nM]	IC50 ([1]; Homo sapiens) [nM]
Cc1ccc(S(=O)(=O)NC23CCC(CC2)C3)cc1-c1cnc2c(N)ncnn12 [Example 180, 3-(4-aminoimidazo[1,2-f][1,2,4]triazin-7-yl)-N-(bicyclo[2.2.1]heptan-1-yl)-4-methylbenzenesulfonamide trifluoroacetate salt]	100 to 500	100 to 500	< 100	–
Cc1ccc(S(=O)(=O)NC23CCC(CC2)CC3)cc1-c1cnc2c(N)ncnn12 [Example 181, 3-(4-aminoimidazo[1,2-f][1,2,4]triazin-7-yl)-N-(bicyclo[2.2.2]octan-1-yl)-4-methylbenzenesulfonamide trifluoroacetate salt]	100 to 500	< 100	< 100	–
Cc1ccc(S(=O)(=O)NC23CCN(CC2)CC3)cc1-c1cnc2c(N)ncnn12 [Example 182, 3-(4-aminoimidazo[1,2-f][1,2,4]triazin-7-yl)-4-methyl-N-(quinuclidin-4-yl)benzenesulfonamide trifluoroacetate salt]	500 to 1000	500 to 2000	< 100	–
Cc1ccc(S(=O)(=O)N[C@H]2CC[C@H](CC#N)OC2)cc1-c1cnc2c(N)ncnn12 [Example 183, 3-(4-aminoimidazo[2,1-f][1,2,4]triazin-7-yl)-N-((3S,6R)-6-(cyanomethyl)tetrahydro-2H-pyran-3-yl)-4-methylbenzenesulfonamide]	–	100 to 500	< 100	< 100
Cc1ccc(S(=O)(=O)N[C@H]2CC[C@H](CC#N)CC2)cc1-c1cnc2c(N)ncnn12 [Example 184, 3-(4-aminoimidazo[2,1-f][1,2,4]triazin-7-yl)-N-(trans-4-(cyanomethyl)cyclohexyl)-4-methylbenzenesulfonamide trifluoroacetate]	–	< 100	< 100	< 100
Cc1ccc(S(=O)(=O)NC23CCC(O)(CC2)CC3)cc1-c1cnc2c(N)ncnn12 [Example 185, 3-(4-aminoimidazo[2,1-f][1,2,4]triazin-7-yl)-N-(4-hydroxybicyclo[2.2.2]octan-1-yl)-4-methylbenzenesulfonamide]	–	100 to 500	< 100	100 to 500
Cc1ccc(S(=O)(=O)NC23CCC(CO)(CC2)CC3)cc1-c1cnc2c(N)ncnn12 [Example 186, 3-(4-aminoimidazo[2,1-f][1,2,4]triazin-7-yl)-N-(4-(hydroxymethyl)bicyclo[2.2.2]octan-1-yl)-4-methylbenzenesulfonamide]	–	100 to 500	< 100	100 to 500
Cc1ccc(S(=O)(=O)NC23CCC(C#N)(CC2)CC3)cc1-c1cnc2c(N)ncnn12 [Example 187, 3-(4-aminoimidazo[2,1-f][1,2,4]triazin-7-yl)-N-(4-cyanobicyclo[2.2.2]octan-1-yl)-4-methylbenzenesulfonamide]	–	100 to 500	< 100	100 to 500
Cc1ccc(S(=O)(=O)NC23CCC(F)(CC2)CC3)cc1-c1cnc2c(N)ncnn12 [Example 188, 3-(4-aminoimidazo[2,1-f][1,2,4]triazin-7-yl)-N-(4-fluorobicyclo[2.2.2]octan-1-yl)-4-methylbenzenesulfonamide]	–	< 100	< 100	100 to 500
Cc1ccc(S(=O)(=O)NC2(C#N)CC2)cc1-c1cnc2c(N)ncnn12 [Example 189, 3-(4-aminoimidazo[2,1-f][1,2,4]triazin-7-yl)-N-(1-cyanocyclopropyl)-4-methylbenzenesulfonamide]	–	500 to 2000	< 100	500 to 1000
Cc1ccc(S(=O)(=O)NC(C)(C)C(N)=O)cc1-c1cnc2c(N)ncnn12 [Example 190, 2-((3-(4-aminoimidazo[2,1-f][1,2,4]triazin-7-yl)-4-methylphenyl)sulfonamido)-2-methylpropanamide trifluoroacetate]	–	500 to 2000	< 100	> 1000
Cc1ccc(S(=O)(=O)NC2(C#N)CCC2)cc1-c1cnc2c(N)ncnn12 [Example 192, 3-(4-aminoimidazo[2,1-f][1,2,4]triazin-7-yl)-N-(1-cyanocyclobutyl)-4-methylbenzenesulfonamide trifluoroacetate]	–	100 to 500	< 100	500 to 1000
Cc1ccc(S(=O)(=O)N2CCC3(CCCO3)CC2)cc1-c1cnc2c(N)ncnn12 [Example 194, 7-(5-((1-Oxa-8-azaspiro[4.5]decan-8-yl)sulfonyl)-2-methylphenyl)imidazo[2,1-f][1,2,4]triazin-4-amine]	–	500 to 2000	< 100	100 to 500
Cc1ccc(S(=O)(=O)N2CC[C@H](O)C2)cc1-c1cnc2c(N)ncnn12 [Example 197, (S)-1-((3-(4-Aminoimidazo[2,1-f][1,2,4]triazin-7-yl)-4-methylphenyl)sulfonyl)pyrrolidin-3-ol]	–	500 to 2000	< 100	500 to 1000
CC(=O)NC1CCN(S(=O)(=O)c2ccc(C)c(-c3cnc4c(N)ncnn34)c2)C1 (stereo not drawn) [Example 199, N-(1-((3-(4-Aminoimidazo[2,1-f][1,2,4]triazin-7-yl)-4-methylphenyl)sulfonyl)pyrrolidin-3-yl)acetamide]	–	500 to 2000	< 100	500 to 1000
Cc1ccc(S(=O)(=O)N2CCC3(CCCOC3)C2)cc1-c1cnc2c(N)ncnn12 (stereo not drawn) [Example 203, 7-(5-((7-Oxa-2-azaspiro[4.5]decan-2-yl)sulfonyl)-2-methylphenyl)imidazo[2,1-f][1,2,4]triazin-4-amine]	–	100 to 500	< 100	500 to 1000
Cc1ccc(S(=O)(=O)N2CCC3(CCO3)C2)cc1-c1cnc2c(N)ncnn12 (stereo not drawn) [Example 205, 7-(5-((1-Oxa-6-azaspiro[3.4]octan-6-yl)sulfonyl)-2-methylphenyl)imidazo[2,1-f][1,2,4]triazin-4-amine]	–	500 to 2000	< 100	> 1000
Cc1ccc(S(=O)(=O)N2CCC3(CCOCC3)C2C)cc1-c1cnc2c(N)ncnn12 (stereo not drawn) [Example 206, 7-(2-Methyl-5-((1-methyl-8-oxa-2-azaspiro[4.5]decan-2-yl)sulfonyl)phenyl)imidazo[2,1-f][1,2,4]triazin-4-amine]	–	500 to 2000	< 100	> 1000
Cc1ccc(S(=O)(=O)N2CCCC23CCOC3)cc1-c1cnc2c(N)ncnn12 (stereo not drawn) [Example 208, 7-(5-((7-Oxa-1-azaspiro[4.4]nonan-1-yl)sulfonyl)-2-methylphenyl)imidazo[2,1-f][1,2,4]triazin-4-amine]	–	500 to 2000	< 100	500 to 1000
Cc1ccc(S(=O)(=O)N2CC3CCOCC3C2)cc1-c1cnc2c(N)ncnn12 (stereo not drawn) [Example 210, 7-(5-((Hexahydropyrano[3,4-c]pyrrol-2(3H)-yl)sulfonyl)-2-methylphenyl)imidazo[2,1-f][1,2,4]triazin-4-amine]	–	100 to 500	< 100	100 to 500
Cc1ccc(S(=O)(=O)N2CC(F)(F)C[C@H]2CO)cc1-c1cnc2c(N)ncnn12 [Example 212, (S)-(1-((3-(4-Aminoimidazo[2,1-f][1,2,4]triazin-7-yl)-4-methylphenyl)sulfonyl)-4,4-difluoropyrrolidin-2-yl)methanol]	–	500 to 2000	< 100	500 to 1000
Cc1ccc(S(=O)(=O)N[C@@H](C)CO)cc1-c1cnc2c(N)nc(C(F)(F)F)nn12 [Example 249, (S)-3-(4-Amino-2-(trifluoromethyl)imidazo[2,1-f][1,2,4]triazin-7-yl)-N-(1-hydroxypropan-2-yl)-4-methylbenzenesulfonamide]	–	100 to 500	< 100	100 to 500
Cc1ccc(S(=O)(=O)NC23CC(C#N)(C2)C3)cc1-c1cnc2c(N)ncnn12 [Example 250, 3-(4-Aminoimidazo[2,1-f][1,2,4]triazin-7-yl)-N-(3-cyanobicyclo[1.1.1]pentan-1-yl)-4-methylbenzenesulfonamide]	–	100 to 500	< 100	100 to 500
Cc1ccc(S(=O)(=O)NC23CCC(C#N)(C2)C3)cc1-c1cnc2c(N)ncnn12 [Example 251, 3-(4-Aminoimidazo[2,1-f][1,2,4]triazin-7-yl)-N-(4-cyanobicyclo[2.1.1]hexan-1-yl)-4-methylbenzenesulfonamide trifluoroacetate salt]	–	100 to 500	< 100	< 100
[2H]C([2H])([2H])c1ccc(S(=O)(=O)NC23CCC(O)(C2)C3)cc1-c1cnc2c(N)nc(C(F)(F)F)cn12 [Example 252, 3-(8-Amino-6-(trifluoromethyl)imidazo[1,2-a]pyrazin-3-yl)-N-(4-hydroxybicyclo[2.1.1]hexan-1-yl)-4-(methyl-d3)benzenesulfonamide]	–	100 to 500	< 100	100 to 500
[2H]C([2H])([2H])c1ccc(S(=O)(=O)NC23CCC(C#N)(C2)C3)cc1-c1cnc2c(N)ncnn12 [Example 253, 3-(4-Aminoimidazo[2,1-f][1,2,4]triazin-7-yl)-N-(4-cyanobicyclo[2.1.1]hexan-1-yl)-4-(methyl-d3)benzenesulfonamide (crystalline free base)]	–	100 to 500	< 100	< 100
